The text below walks through data of publication PMC6905855, “Agonist-specific voltage-dependent gating of lysosomal two-pore Na^+ channels” (eLife, 2019).

Where “and” joins values, the source holds several entries; their conditions need not be identical. Equal entries are not always repeated. Entries after “also recorded” stand apart in the source; their conditions may differ.

Test [1] concerns surface-expressing mutant TRPML1 channels (TRPML1^4A). Description: Whole-cell recordings of ITRPML1-4A. In kind it is cell-based. The conditions noted are these: TRPML1-4A wc; individual cells.
A further test deals with TPC1/2 DKO HAP1 cells. Description: Whole-endolysosome recordings in TPC1/2 DKO HAP1 cells. Format: biochemical, human. From the text:
TCAs, with a general structure of an aromatic greasy core and an aliphatic chain containing a terminal amine, are lysosomotropic compounds that are known to be highly accumulating in the lysosomes due to proton trapping ([Beckmann et al., 2014]). We next tested the effects of LyNa-VAs in hTPC2-transfected Cos1 and HEK293 cells using whole-endolyosome patch-clamp.
Data are presented as Mean ± S.E.M (n = 3 patches). […] For panels B, D and F, individual data and Mean ± S.E.M are presented. *, p<0.05; **, p<0.01; ***, p<0.001; N.S., no significance. Figure 3—source data 1. […] Figure 3—figure supplement 1. […] Both individual data points and Mean ± S.E.M are presented (n ≥ 3 patches; also see individual data in Figure 3—figure supplement 1—source data 1). Figure 3—figure supplement 1—source data 1.
TPC1 and TPC2 CRISPR KO cells were generated in HAP1 cells using the CRISPR/Cas9 system. The TPC1 sequence (5'cttgcagtacttcagcaccc3', TPC1-sgRNA) and TPC2 sequence (5'ccccagcgtcgggctgctgc3', TPC2-sgRNA) were targeted with pSpCas9 (BB)−2A-puro vector (Addgene). HAP1 cells were co-transfected with TPC1 and TPC2-sgRNA expressing vector in the presence of Lipofectamine 2000 (In vitrogen) and selected with 2 μg/ml puromycin for 48 hr. The remaining cells were trypsinized and seeded into 96-well plate after a limiting dilution. When single cell clones were established, their genomic DNAs were extracted and amplified with following primers: TPC1-fw: 5’atggcccagacatgtgactc3’, TPC1-re: 5’ tgcctgtctccatcctctca3’; TPC2-fw: 5’tgagctgagcatgaggcaag3’, TPC2-re: 5’ aaaggacaagtggccctgag3’. The PCR amplicons were then sequenced to confirm the intended genetic disruption.
(§1) Whole-endolysosome recordings were performed on manually isolated enlarged endolysosomes ([Wang et al., 2012]). In brief, a patch pipette was pressed against a cell and quickly pulled away to slice the cell membrane. Enlarged endolysosomes were released into a dish and identified by monitoring EGFP-TPC1/2 or the mCherry-TPC1/2 fluorescence. After formation of a gigaseal between the patch pipette and the enlarged endolysosome, capacitance transients were compensated. Voltage steps of several hundred mVs with millisecond duration were then applied to break into the vacuolar membrane. The whole-endolysosome configuration was verified by the re-appearance of capacitance transients after break-in.
(§2) Data were collected using an Axopatch 200A patch clamp amplifier, Digidata 1440, and pClamp 10.2 software (Axon Instruments). Whole-endolysosome currents were digitized at 10 kHz and filtered at 2 kHz. All experiments were conducted at room temperature (21–23°C), and all recordings were analyzed with pClamp 10.2, and Origin 8.0 (OriginLab, Northampton, MA). The permeability to cations (relative to PNa) was estimated based on following equations ([Lewis, 1979]) and Erev measurement under bi-ionic conditions:(1) PX/PNa=γNa/γX{[Na^+]Luminal/[X^+]Cytoplasmic}{exp([…])} (2) PCa/PNa=γNa/γCa{[Na^+]Cytoplasmic/[4[Ca^2+]Luminal}{exp(ErevF/RT)}{1+exp(ErevF/RT)} where R, T, F, Erev, and γ are, respectively, the gas constant, absolute temperature, Faraday constant, reversal potential, and activity coefficient.

The target of another test is T1, hTPC2 (Homo sapiens, UniProt Q8NHX9).
T1 construct: expressed in transfected cells; host or cells: Cos1 and HEK293
Description: Whole-endolysosome recordings of ITPC2. Format: biochemical. The conditions noted are these: for inactivation of ITPC2, I500ms / I10ms: @-120mV; for PX / PNa, Ca2+ / PX / PNa, K+ / PX / PNa, Na+: TPC2 WT, agonist-activated ITPC2.

The test system of a further test is T2, TPC2^N653G.
T2 construct: expressed in transfected cells
Kind of test: Whole-endolysosome recordings of ITPC2-N653G. The conditions noted are these: TPC2 N653G, agonist-activated current. Format: biochemical, human.

In another test the target is T3, hTPC1 (Homo sapiens, UniProt Q9ULQ1).
T3 construct: expressed in transfected cells; host or cells: Cos1
Description: Whole-endolysosome recordings of ITPC1. In kind it is biochemical. On the procedure: It was therefore of interest to explore whether TCAs/LyNa-VAs could also act on TPC1. To investigate this, we used two different voltage paradigms. […] Second, we used a tail current paradigm to measure the amplitude of the peak inward current at −120 mV following prolonged steps to various potentials (Figure 4E).
Figure 4. […] HP = 0 mV. […] Dotted lines in A indicate where the currents were measured. […] Data are presented as Mean ± S.E.M (n = 3 patches). […] (G) Normalized I-V plots of basal voltage-dependent currents in WT TPC1- and TPC1^R540I-transfected cells. […] Figure 4—source data 1. […] Figure 4—figure supplement 1. […] (A) A voltage protocol that elicited ITPC1 tail currents as shown in Figure 4E (from −140 to 100 mV with a ∆V = 20 mV, 1 s with a 10 s inter-step interval). Arrows indicate where tail currents were measured. (B) A voltage protocol that elicited ITPC1 tail currents as shown in C. […] HP = 0 mV. […] (A) Basal whole-endolysosome ITPC1 (left) or ITPC1-R540I (right) was elicited by voltage steps (−140 to +100 mV with ΔV = 20 mV) in the absence of PI(3,5)P2 in TPC1-transfected Cos1 cells ([She et al., 2019]). Tail currents were elicited at −120 mV. (B) The effects of PI(3,5)P2 (0.3 µM) on ITPC1 (left) and ITPC1-R540I (right) step currents. […] A preconditioning voltage (+80 mV, 0.1 s) was applied before voltage steps starting from −140 to 100 mV (0.5 s, ∆V = 20 mV).
(§3) All TPC1 and TPC2 mutants were generated with a site-directed mutagenesis kit (Qiagen) using EGFP- human TPC1 and TPC2 as the templates. All constructs were confirmed by DNA sequencing.
as §1
as §2, with “coefficient. The liquid junction potentials were measured and corrected as described ([Neher, 1992]).” for “coefficient.”

A further test relates to T4, hTPC1^R540I.
T4 construct: expressed in transfected cells; host or cells: Cos1
Kind of test: Whole-endolysosome recordings of ITPC1-R540I. Format: biochemical, human.

For test [2], the target named is T5, surface-expressing mutant TPC2 channel (TPC2^LL/AA) in HEK293 cells (Homo sapiens, UniProt Q8NHX9, L11A/L12A).
T5 construct: expressed in transfected cells; host or cells: HEK293
Kind of test: Whole-cell recordings of ITPC2-LL/AA. In kind it is cell-based. The conditions noted are these: for current density: whole cell recordings, individual recordings.
Description: We therefore characterized the responses of TPC2 channels to TCAs in detail using electrophysiological methods. We first performed whole-cell recordings in HEK293 cells that were transfected with surface-expressed TPC2 mutant channels (TPC2-L^11L^12-AA; abbreviated as TPC2^LL/AA hereafter).
as §3
Cells were transfected with Lipofectamine 2000 (Invitrogen). After culture media were refreshed 18–24 hr post-transfection, cells were used for the electrophysiological assays 24–36 hr post-transfection.
All bath solutions were applied via a perfusion system that allowed complete solution exchange within a few seconds. […] Whole-cell currents were digitized at 10 kHz and filtered at 2 kHz.

Setting [3] is: PI(3,5)P2 0.3 µM, LyNa-VA1.2 100 µM, LyNA1 300 µM, individual tests, listed as pip2.

T1 sequence (Q8NHX9 whole entry): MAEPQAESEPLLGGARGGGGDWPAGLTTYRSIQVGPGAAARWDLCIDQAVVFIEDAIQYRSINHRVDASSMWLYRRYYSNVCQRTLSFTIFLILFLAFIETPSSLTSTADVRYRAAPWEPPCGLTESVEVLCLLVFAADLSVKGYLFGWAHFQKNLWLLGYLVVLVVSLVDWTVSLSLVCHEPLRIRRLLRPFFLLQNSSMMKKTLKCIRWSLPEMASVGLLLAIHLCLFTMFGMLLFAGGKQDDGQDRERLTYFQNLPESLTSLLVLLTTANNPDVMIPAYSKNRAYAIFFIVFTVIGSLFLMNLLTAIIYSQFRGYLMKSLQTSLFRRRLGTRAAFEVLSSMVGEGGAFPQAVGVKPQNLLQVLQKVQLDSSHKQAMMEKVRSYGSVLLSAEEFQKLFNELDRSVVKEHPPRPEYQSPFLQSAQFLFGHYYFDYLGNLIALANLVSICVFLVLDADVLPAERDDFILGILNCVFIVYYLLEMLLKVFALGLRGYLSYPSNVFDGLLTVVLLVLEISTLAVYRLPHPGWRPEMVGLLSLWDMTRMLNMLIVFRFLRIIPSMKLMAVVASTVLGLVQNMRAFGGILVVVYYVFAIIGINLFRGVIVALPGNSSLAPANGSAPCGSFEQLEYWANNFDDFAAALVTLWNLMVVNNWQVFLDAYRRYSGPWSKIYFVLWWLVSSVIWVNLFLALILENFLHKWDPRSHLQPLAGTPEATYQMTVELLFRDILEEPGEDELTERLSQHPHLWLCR
T5 sequence (Q8NHX9 whole entry L11A/L12A): as the sequence (Q8NHX9 whole entry) above, with L11A, L12A counted along it

For the compound ML-SA1, the “current, whole-cell ITRPML1-4A” value in test [1] was 4274.3 pA and 5928.6 pA. Besides, in the test on TPC1/2 DKO HAP1 cells, the “activation of ITRPML1 in TPC1/2 DKO cells (in words)” value was “readily activated ITRPML1”.

With PI(3,5)P2, the “voltage dependence of TPC2 activation (in words)” value on hTPC2 was “voltage independent; also recorded: no apparent voltage-dependent activation”. Besides, the “inactivation of ITPC2, I500ms / I10ms” value at hTPC2 (setting [3]) is 1.002 and 0.9763 and 0.9931 and 0.9868; at hTPC2 (mean), 0.9895. Also, the “Rectification index of ITPC2, I+80mV/I-80mV” value on hTPC2 (setting [3]) was 0.8422 and 1.096 and 1.053 and 1.001; on hTPC2 (PI(3,5)P2 0.3 µM, LyNa-VA1.2 100 µM, LyNA1 300 µM, mean) it was 1.00 ± 0.06; on hTPC2 (PI(3,5)P2 0.3 µM, LyNa-VA1.2 100 µM, LyNA1 300 µM, mean, listed as pip2) it was 0.9981. Besides, the “PX / PNa, Ca2+” value at hTPC2 (individual) is 0.016 and 0.034; on hTPC2 (mean), 0.022. For the same compound, the “PX / PNa, K+” value was 0.02921 and 0.09237 and 0.08877 and 0.01887 at hTPC2 (individual); 0.05731 on hTPC2 (mean); 0.5092 and 0.6027 and 0.4961 and 0.3927 with TPC2^N653G (individual); 0.5002 in the test with TPC2^N653G (mean). The “PX / PNa, Na+” value at hTPC2 (individual) was 0.9921 and 1.104 and 1; on hTPC2 (mean), 1.032. Also, the “activation of whole-endolysosome ITPC2 (in words)” value at hTPC2 (bath application, symmetric Na^+) is listed as “activated a large whole-endolysosome ITPC2 with linear I-V”. Moreover, the “I@500ms/I@10ms (current decline at steady state)” value at hTPC2 (voltage-step protocols, at all potentials) is about 1.0. Moreover, the “effect on whole-endolysosome ITPC1 (in words)” value at hTPC1 was “large enhancement at negative potentials”. Further, in the test on hTPC1^R540I, the “effect on ITPC1-R540I (in words)” value is “large currents at all potentials”.

With `CN(C)CCCN1c2ccccc2Sc2ccc(Cl)cc21` [LyNa-VA2.1, Chlorpromazine], the “activation of whole-cell ITPC2-LL/AA (in words)” value in test [2] (bath application, symmetric Na^+, 100 µM where stated) is given as “ITPC2 was evoked”. Further, the current density in test [2] (5 µM) is 7.8 pA/pF; in test [2] (10 µM), 11.2294 pA/pF and 9.959 pA/pF and 11.6261 pA/pF and 6.052 pA/pF; in test [2] (20 µM) it was 17.6973 pA/pF and 20.0248 pA/pF and 34.5739 pA/pF and 9.104 pA/pF; in test [2] (50 µM), 54.3211 pA/pF and 69.6612 pA/pF and 69.313 pA/pF and 27.4087 pA/pF; in test [2] (100 µM), 137.55 pA/pF and 140.785 pA/pF and 150.409 pA/pF and 87.5478 pA/pF; in test [2] (200 µM), 152.165 pA/pF and 168.074 pA/pF and 117.748 pA/pF. In addition, the EC50 in test [2] (whole-cell recordings at −140 mV, TPC2^LL/AA-transfected HEK293 cells, read-out: EC50) came to 60 ± 2 µM. At hTPC2 (whole endolysosome recordings with 100 µM of LyNa-VAs at −120 mV), this compound yielded an ITPC2 of 1101 ± 508 pA. On hTPC1, the “effect on whole-endolysosome ITPC1 (in words)” value is listed as “inhibited ITPC1”. Further, the “Dose-dependent inhibition of TPC1 (ITPC1, value at 0 µM = 1)” value was 0.9084 and 0.9958 and 1.027 at hTPC1 (3 µM, individual patches); 0.9772 on hTPC1 (3 µM, mean); 0.8547 and 1.003 and 0.8763 at hTPC1 (10 µM, individual patches); 0.9114 at hTPC1 (10 µM, mean); 0.8617 and 0.806 and 0.5194 on hTPC1 (30 µM, individual patches); 0.729 at hTPC1 (30 µM, mean). The “Dose-dependent inhibition of TPC1 (ITPC1, value at 0 µM = 1)” value at hTPC1 (100 µM, individual patches) is 0.4994 and 0.4103 and 0.291; at hTPC1 (100 µM, mean) it was 0.4003; at hTPC1 (300 µM, individual patches) it was 0.197 and 0.08086 and 0.1214; on hTPC1 (300 µM, mean) it was 0.1331. Further, the IC50 at hTPC1 (whole-endolysosome, n = 3 patches, read-out: IC50, inhibition of TPC1) was determined as 77 ± 2 µM.

Broadly, the EC50 is the concentration needed to bring the measured effect to its halfway point. Usually IC50 stands for the concentration at which inhibition is half-maximal.
